Test results as given in US8993591B2, “1,2,4-triazolo[4,3-a] pyridine derivatives and their use as positive allosteric modulators of MGLUR2 receptors” (Janssen Pharmaceuticals, Inc., priority 2010, dated 2015).
Where a name gives a salt, the structure may show the parent alone.

Biological target: T1, human mGluR2 receptor (Homo sapiens, UniProt Q14416)
T1 construct: expressed in transfected cells; host or cells: CHO cells (membranes)
Test: [35S]GTPγS binding assay, mGluR2 positive allosteric modulation (PAM)
Type: biochemical
Conditions: membranes from CHO cells transfected with human mGluR2, in presence of glutamate at EC20; for EC50: -log EC50 with EC50 in M, read-out: GTPγS - hmGluR2 PAM pEC50 (converted); for Emax / GTPγS - hmGluR2 PAM Emax: maximal % effect relative to the control glutamate response; for Emax: read-out: GTPγS - hmGluR2 PAM Emax
Method: The [^35S]GTPγS binding assay is a functional membrane-based assay used to study G-protein coupled receptor (GPCR) function whereby incorporation of a non-hydrolysable form of GTP, [^35S]GTPγS (guanosine 5′-triphosphate, labelled with […] ^35S), is measured. The G-protein α subunit catalyzes the exchange of guanosine 5′-diphosphate (GDP) by guanosine triphosphate (GTP) and on activation of the GPCR by an agonist, [^35S]GTPγS, becomes incorporated and cannot be cleaved to continue the exchange cycle (Harper (1998) Current Protocols in Pharmacology 2.6.1-10, John Wiley & Sons, Inc.). […] Here we describe the use of the [^35S]GTPγS binding assay using membranes from cells transfected with the human mGluR2 receptor and adapted from Schaffhauser et al. ((2003) Molecular Pharmacology 4:798-810) for the detection of the positive allosteric modulation (PAM) properties of the compounds of this invention.
CHO-cells were cultured to pre-confluence and stimulated with 5 mM butyrate for 24 h. Cells were then collected by scraping in PBS and cell suspension was centrifuged (10 min at 4000 RPM in benchtop centrifuge). Supernatant was discarded and pellet gently resuspended in 50 mM Tris-HCl, pH 7.4 by mixing with a vortex and pipetting up and down. The suspension was centrifuged at 16,000 RPM (Sorvall RC-5C plus rotor SS-34) for 10 minutes and the supernatant discarded. The pellet was homogenized in 5 mM Tris-HCl, pH 7.4 using an ultra-turrax homogenizer and centrifuged again (18,000 RPM, 20 min, 4° C.). The final pellet was resuspended in 50 mM Tris-HCl, pH 7.4 and stored at −80° C. in appropriate aliquots before use. Protein concentration was determined by the Bradford method (Bio-Rad, USA) with bovine serum albumin as standard.
Measurement of mGluR2 positive allosteric modulatory activity of test compounds was performed as follows. Test compounds and glutamate were diluted in assay buffer containing 10 mM HEPES acid, 10 mM HEPES salt, pH 7.4, 100 mM NaCl, 3 mM MgCl2 and 10 μM GDP. Human mGlu2 receptor-containing membranes were thawed on ice and diluted in assay buffer supplemented with 14 μg/ml saponin. Membranes were pre-incubated with compound alone or together with a predefined (˜EC20) concentration of glutamate (PAM assay) for 30 min at 30° C. After addition of [^35S]GTPγS (f.c. 0.1 nM), assay mixtures were shaken briefly and further incubated to allow [^35S]GTPγS incorporation on activation (30 minutes, 30° C.). Final assay mixtures contained 7 μg of membrane protein in 10 mM HEPES acid, 10 mM HEPES salt, pH 7.4, 100 mM NaCl, 3 mM MgCl2, 10 μM GDP and 10 μg/ml saponin. Total reaction volume was 200 μl. Reactions were terminated by rapid filtration through Unifilter-96 GF/B plates (Perkin Elmer, Mass., USA) using a 96-well filtermate universal harvester. Filters were washed 6 times with ice-cold 10 mM NaH2PO4/10 mM Na2HPO4, pH 7.4. Filters were then air-dried, and 40 μl of liquid scintillation cocktail (Microscint-O) was added to each well. Membrane-bound radioactivity was counted in a Microplate Scintillation and Luminescence Counter from Perkin Elmer.
The concentration-response curves of representative compounds of the present invention-obtained in the presence of EC20 of mGluR2 agonist glutamate to determine positive allosteric modulation (PAM)-were generated using the Lexis software interface (developed at J&J).

T1 sequence (Q14416 19-872): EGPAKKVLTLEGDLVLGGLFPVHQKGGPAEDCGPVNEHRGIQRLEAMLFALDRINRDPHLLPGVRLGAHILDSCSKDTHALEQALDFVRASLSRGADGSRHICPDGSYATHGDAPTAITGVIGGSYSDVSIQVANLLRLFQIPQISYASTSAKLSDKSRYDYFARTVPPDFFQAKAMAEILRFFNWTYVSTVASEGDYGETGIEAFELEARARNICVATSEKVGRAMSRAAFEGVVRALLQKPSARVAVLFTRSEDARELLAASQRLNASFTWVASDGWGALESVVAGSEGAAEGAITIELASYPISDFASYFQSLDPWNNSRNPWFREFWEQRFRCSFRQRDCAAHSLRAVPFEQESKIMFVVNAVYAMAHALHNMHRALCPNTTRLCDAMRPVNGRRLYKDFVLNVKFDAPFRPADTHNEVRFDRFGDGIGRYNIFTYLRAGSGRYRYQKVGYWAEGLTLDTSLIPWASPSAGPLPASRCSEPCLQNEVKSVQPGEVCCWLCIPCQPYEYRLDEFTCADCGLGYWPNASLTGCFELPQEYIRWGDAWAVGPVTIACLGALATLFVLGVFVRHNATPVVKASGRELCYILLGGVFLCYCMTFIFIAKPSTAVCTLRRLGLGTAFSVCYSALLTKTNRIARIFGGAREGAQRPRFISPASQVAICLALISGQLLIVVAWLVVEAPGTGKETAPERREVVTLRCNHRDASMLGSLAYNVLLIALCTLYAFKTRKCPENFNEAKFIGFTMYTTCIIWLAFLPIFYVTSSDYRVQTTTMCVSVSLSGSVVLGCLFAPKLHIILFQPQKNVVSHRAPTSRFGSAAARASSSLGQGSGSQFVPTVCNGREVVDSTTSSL

EC50 | Emax | GTPγS - hmGluR2 PAM Emax | SMILES
12.6 nM | 277% |  | Fc1ccc(N2CCN(Cc3ccn4c(CC5CC5)nnc4c3C(F)(F)F)C3CC32)c(F)c1 (racemic) [Compound 12, 2-[[3-(Cyclopropylmethyl)-8-(trifluoromethyl)-1,2,4-triazolo[4,3-a]pyridin-7-yl]methyl]-5-(2,4-difluorophenyl)-2,5-diazabicyclo[4.1.0]heptane (cis)]
 | 271% |  | CC1(c2ccccc2)CN(Cc2ccn3c(CC4CC4)nnc3c2C(F)(F)F)CCN1 (single isomer, unassigned) [Compound 3a, 3-(Cyclopropylmethyl)-7-[(3-methyl-3-phenyl-1-piperazinyl)methyl]-8-(trifluoromethyl)-1,2,4-triazolo[4,3-a]pyridine (*R) hydrochloride hydrate (.2HCl.2.5H2O)]
37.2 nM | 292% |  | CC1(c2ccccc2)CN(Cc2ccn3c(CC4CC4)nnc3c2C(F)(F)F)CCN1 (single isomer, unassigned) [Compound 3b, 3-(cyclopropylmethyl)-7-[(3-methyl-3-phenyl-1-piperazinyl)methyl]-8-(trifluoromethyl)-1,2,4-triazolo[4,3-a]pyridine (*S) hydrochloride hydrate (.2.4HCl.2.7H2O)]
2240 nM | 270% |  | FC(F)(F)c1c(CN2CCNC(c3ccccc3)C2)ccn2c(CC3CC3)nnc12 (single isomer, unassigned) [Compound 5a, 3-(Cyclopropylmethyl)-7-[(3-phenyl-1-piperazinyl)methyl]-8-(trifluoromethyl)-1,2,4-triazolo[4,3-a]pyridine(*R)]
955 nM |  | 278% | FC(F)(F)c1c(CN2CCNC(c3ccccc3)C2)ccn2c(CC3CC3)nnc12 (single isomer, unassigned) [Compound 5b, 3-(cyclopropylmethyl)-7-[(3-phenyl-1-piperazinyl)methyl]-8-(trifluoromethyl)-1,2,4-triazolo[4,3-a]pyridine (*S)]
447 nM |  | 208% | Fc1ccccc1C1CN(Cc2ccn3c(CC4CC4)nnc3c2C(F)(F)F)CCN1 (single isomer, unassigned) [Compound 6a, 3-(cyclopropylmethyl)-7-[[3-(2-fluorophenyl)-1-piperazinyl]methyl]-8-(trifluoromethyl)-1,2,4-triazolo[4,3-a]pyridine (*R)]
631 nM |  | 294% | Fc1ccccc1C1CN(Cc2ccn3c(CC4CC4)nnc3c2C(F)(F)F)CCN1 (single isomer, unassigned) [Compound 6b, 3-(cyclopropylmethyl)-7-[[3-(2-fluorophenyl)-1-piperazinyl]methyl]-8-(trifluoromethyl)-1,2,4-triazolo[4,3-a]pyridine (*S)]
 | 199% |  | CN1CCN(Cc2ccn3c(CC4CC4)nnc3c2C(F)(F)F)CC1c1ccccc1 (single isomer, unassigned) [Compound 7a, 3-(Cyclopropylmethyl)-7-[(4-methyl-3-phenyl-1-piperazinyl)methyl]-8-(trifluoromethyl)-1,2,4-triazolo[4,3-a]pyridine (*R)]
263 nM | 198% |  | CN1CCN(Cc2ccn3c(CC4CC4)nnc3c2C(F)(F)F)CC1c1ccccc1 (single isomer, unassigned) [Compound 7b, 3-(cyclopropylmethyl)-7-[(4-methyl-3-phenyl-1-piperazinyl)methyl]-8-(trifluoromethyl)-1,2,4-triazolo[4,3-a]pyridine (*S)]
676 nM |  | 273% | CC1(c2ccccc2)CN(Cc2ccn3c(CC4CC4)nnc3c2C(F)(F)F)CCO1 (single isomer, unassigned) [Compound 8a, 3-(Cyclopropylmethyl)-7-[(2-methyl-2-phenyl-4-morpholinyl)methyl]-8-(trifluoromethyl)-1,2,4-triazolo[4,3-a]pyridine (*R) hydrochloride hydrate (.1.1HCl.1.1H2O)]
8.32 nM |  | 243% | CC1(c2ccccc2)CN(Cc2ccn3c(CC4CC4)nnc3c2C(F)(F)F)CCO1 (single isomer, unassigned) [Compound 8b, 3-(cyclopropylmethyl)-7-[(2-methyl-2-phenyl-4-morpholinyl)methyl]-8-(trifluoromethyl)-1,2,4-triazolo[4,3-a]pyridine (*S) hydrochloride hydrate (.1.3HCl.1.6H2O)]
 | 193% |  | Cc1nnc2c(C(F)(F)F)c(CN3CCCC(C)(c4ccccc4)C3)ccn12 (single isomer, unassigned) [Compound 10, 3-Methyl-7-[(3-methyl-3-phenyl-1-piperidinyl)methyl]-8-(trifluoromethyl)-1,2,4-triazolo[4,3-a]pyridine (*S)]
53.7 nM | 268% |  | Cc1nnc2c(C(F)(F)F)c(CN3CCCC(C)(c4ccccc4)C3)ccn12 (single isomer, unassigned) [Compound 11, 3-Methyl-7-[(3-methyl-3-phenyl-1-piperidinyl)methyl]-8-(trifluoromethyl)-1,2,4-triazolo[4,3-a]pyridine (*R)]
12.6 nM |  | 248% | CC1(c2ccccc2)CCN(Cc2ccn3c(CC4CC4)nnc3c2C(F)(F)F)C1 (single isomer, unassigned) [Compound 13, 3-(cyclopropylmethyl)-7-[(3-methyl-3-phenyl-1-pyrrolidinyl)methyl]-8-(trifluoromethyl)-1,2,4-triazolo[4,3-a]pyridine (*R)]
15.1 nM |  | 286% | CC1(c2ccccc2)CCN(Cc2ccn3c(CC4CC4)nnc3c2C(F)(F)F)C1 (single isomer, unassigned) [Compound 14, 3-(cyclopropylmethyl)-7-[(3-methyl-3-phenyl-1-pyrrolidinyl)methyl]-8-(trifluoromethyl)-1,2,4-triazolo[4,3-a]pyridine (*S)]
977 nM | 259% |  | Fc1ccc(C2CN(Cc3ccn4c(CC5CC5)nnc4c3C(F)(F)F)CCO2)c(F)c1 (single isomer, unassigned) [Compound 17, 3-(Cyclopropylmethyl)-7-{[(2*R)-2-(2,4-difluorophenyl)morpholin-4-yl]methyl}-8-(trifluoromethyl)[1,2,4]triazolo[4,3-a]pyridine]
51.3 nM |  | 242% | Fc1ccc(C2CN(Cc3ccn4c(CC5CC5)nnc4c3C(F)(F)F)CCO2)c(F)c1 (single isomer, unassigned) [Compound 18, 3-(Cyclopropylmethyl)-7-{[(2*S)-2-(2,4-difluorophenyl)morpholin-4-yl]methyl}-8-(trifluoromethyl)[1,2,4]triazolo[4,3-a]pyridine]
912 nM |  | 320% | Fc1ccc(C2CN(Cc3ccn4c(CC5CC5)nnc4c3C(F)(F)F)CCN2)c(F)c1 (single isomer, unassigned) [Compound 19a, 3-(Cyclopropylmethyl)-7-{[(3*R)-3-(2,4-difluorophenyl)piperazin-1-yl]methyl}-8-(trifluoromethyl)[1,2,4]triazolo[4,3-a]pyridine]
468 nM |  | 279% | Fc1ccc(C2CN(Cc3ccn4c(CC5CC5)nnc4c3C(F)(F)F)CCN2)c(F)c1 (single isomer, unassigned) [Compound 19b, 3-(Cyclopropylmethyl)-7-{[(3*S)-3-(2,4-difluorophenyl)piperazin-1-yl]methyl}-8-(trifluoromethyl)[1,2,4]triazolo[4,3-a]pyridine]
